Test results reported in patent US20050101595A1, “N-containing cycloalkyl-substituted amino-thiazole derivatives and pharmaceutical compositions for inhibiting cell proliferation and methods for their use” (PFIZER INC., priority 2003, published 2005).
Counter-ions that a name gives are not always drawn. Like-named read-outs stand apart in the source and are kept apart here.

What was measured:
[1] = target: CDK2/Cyclin A (Homo sapiens, UniProt P24941); experiment: Inhibition of CDK2/Cyclin A Retinoblastoma Kinase Activity; assay type: biochemical; conditions: for Ki: apparent Ki, CDK2/proteolyzed cyclin A, Rb fragment substrate, 25 μM ATP
Outline: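 Human CDK2, baculovirus/insect-cell expressed, complexed with proteolyzed cyclin A (10 nM or 19 nM CDK2) phosphorylates an Rb fragment with 25 μM [32P/33P]ATP at pH 7.4, 30° C, for 60 or 75 minutes under initial-rate conditions. Filter-captured radioactivity is read by phosphorimager; apparent Ki from competitive-inhibition fits.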

[2] = target: human CDK4 and genetically truncated (1-264) cyclin D3 (Homo sapiens, UniProt P11802); experiment: Inhibition of CDK4/Cyclin D Retinoblastoma Kinase Activity; assay type: biochemical; conditions: for Ki: apparent Ki, CDK4/truncated cyclin D3, Rb fragment substrate, 25 μM ATP
Outline: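 Read-out: 32P/33P incorporation into Rb fragment (386-928) captured on nitrocellulose, phosphorimager. Enzyme 5 nM CDK4/cyclin D3(1-264) from insect cells; ATP 25 μM, pH 7.4, 30 °C, 20 min (60 min for tight binders). Ki from competitive fits.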

[3] = tested on: HCT-116 cell line; experiment: Inhibition of cell growth, tetrazolium salt (MTT) assay; assay type: cell-based; conditions: for HCT-116 % Inhibition at 0.25 μM: 0.25 μM compound; for IC50: Homo sapiens, HCT-116, 120 h, MTT, three to five days, read-out: HCT-116 IC50
Outline: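 MTT colorimetric viability: three-to-five-day compound exposure in 0.5% (v/v) DMSO at 37° C, MTT 0.2 mg/mL for the last 4 h, A540 compared with vehicle-treated cells.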

[4] = 0.1 μM compound, HCT-116, Table 4

human CDK4 and genetically truncated (1-264) cyclin D3, sequence (P11802 whole entry, the tested form may be a part): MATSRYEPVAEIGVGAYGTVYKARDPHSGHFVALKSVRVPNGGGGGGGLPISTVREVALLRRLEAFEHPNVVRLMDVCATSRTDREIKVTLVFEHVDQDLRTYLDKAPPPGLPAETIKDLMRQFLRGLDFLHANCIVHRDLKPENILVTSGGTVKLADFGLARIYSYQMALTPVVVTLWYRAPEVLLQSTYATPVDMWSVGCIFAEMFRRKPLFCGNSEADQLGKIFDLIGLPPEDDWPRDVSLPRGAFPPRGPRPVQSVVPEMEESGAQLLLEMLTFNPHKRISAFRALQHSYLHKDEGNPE
human CDK4 and genetically truncated (1-264) cyclin D3, sequence (P30281 1-264 partner): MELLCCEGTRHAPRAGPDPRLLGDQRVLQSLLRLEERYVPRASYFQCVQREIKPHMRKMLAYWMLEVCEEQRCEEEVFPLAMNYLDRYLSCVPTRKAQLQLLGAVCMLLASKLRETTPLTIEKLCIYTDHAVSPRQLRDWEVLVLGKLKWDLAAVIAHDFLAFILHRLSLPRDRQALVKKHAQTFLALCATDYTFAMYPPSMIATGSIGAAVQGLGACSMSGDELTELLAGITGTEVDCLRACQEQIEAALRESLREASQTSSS

SMILES | Ki [1] [nM] | Ki [2] [nM] | IC50 ([3]; first HCT-116 column (c4)) [nM] | IC50 ([3]; second HCT-116 column (c5)) [nM] | CDK2 % Inhibition at 0.03 μM ([1]; at 0.03 μM) [%] | CDK4 % Inhibition at 0.03 μM ([2]; at 0.03 μM) [%] | HCT-116 % Inhibition at 0.1 μM ([3]; HCT-116 cells, at 0.1 μM) [%] | HCT-116 5 Inhibition at 0.25 μM ([3]; HCT-116 cells) | further results
COc1cc(OC)cc(C(=O)N2CCC(Nc3nc(N)c(C(=O)c4c(F)cccc4F)s3)CC2)c1 [Example Q23] | – | – | – | – | – | – | – | – | CDK2 % Inhibition at 0.03 μM ([1]; 0.03 μM compound, Table 4): 20%; CDK4 % Inhibition at 0.03 μM ([2]; 0.03 μM compound, Table 4): 56%; HCT-116 % Inhibition at 0.1 μM [3, 4]: 10%; HCT-116 % Inhibition at 0.25 μM ([3]; HCT-116, Table 4): 42%
CN(C)CC#Cc1ccc(S(=O)(=O)N2CCC(Nc3nc(N)c(C(=O)c4c(F)cccc4F)s3)CC2)cn1 [Example I11, 1-(4-Amino-2-{1-[6-(3-dimethylamino-prop-1-ynyl)-pyridine-3-sulfonyl]-piperidin-4-ylamino}-thiazol-5-yl)-1-(2,6-difluoro-phenyl)-methanone] | < 0.5 | 0.5 | 16 | 25 | – | – | – | – | –
CC(C)(C)NCCOc1ccc(S(=O)(=O)N2CCC(Nc3nc(N)c(C(=O)c4c(F)cccc4F)s3)CC2)cn1 [Example H20, (4-Amino-2-{1-[6-(2-tert-butylamino-ethoxy)-pyridine-3-sulfonyl]-piperidin-4-ylamino}-thiazol-5-yl)-(2,6-difluoro-phenyl)-methanone Hydrochloride Salt] | 1.5 | 0.51 | 380 | 3000 | – | – | – | – | –
Nc1nc(NC2CCN(C(=O)Nc3ccc([N+](=O)[O-])cc3)CC2)sc1C(=O)c1c(F)cccc1F [Example O36] | – | – | – | – | – | – | – | – | CDK2 % Inhibition At 0.03 μM ([1]; 0.03 μM compound, Table 2): 23%; CDK4 % Inhibition at 0.03 μM ([2]; 0.03 μM compound, Table 2): 12%; HCT-116 % Inhibition at 0.25 μM ([3]; HCT-116, Table 2): 28%
N#Cc1ccc(C(=O)N2CCC(Nc3nc(N)c(C(=O)c4c(F)cccc4F)s3)CC2)cc1 [Example Q60] | – | – | – | – | – | – | – | – | CDK2 % Inhibition at 0.03 μM ([1]; 0.03 μM compound, Table 4): 37%; CDK4 % Inhibition at 0.03 μM ([2]; 0.03 μM compound, Table 4): 67%; HCT-116 % Inhibition at 0.1 μM [3, 4]: 0%; HCT-116 % Inhibition at 0.25 μM ([3]; HCT-116, Table 4): 37%
Nc1nc(NC2CCN(C(=S)Oc3ccccc3)CC2)sc1C(=O)c1c(F)cccc1F [Example Q83] | – | – | – | – | – | – | – | – | CDK2 % Inhibition at 0.03 μM ([1]; 0.03 μM compound, Table 4): 72%; CDK4 % Inhibition at 0.03 μM ([2]; 0.03 μM compound, Table 4): 55%; HCT-116 % Inhibition at 0.1 μM [3, 4]: 2%; HCT-116 % Inhibition at 0.25 μM ([3]; HCT-116, Table 4): 25%
Cc1ccc(S(=O)(=O)N[C@@H](Cc2ccccc2)C(=O)N2CCC(Nc3nc(N)c(C(=O)c4c(F)cccc4F)s3)CC2)cc1 [Example R75] | – | – | – | – | 26 | 13 | 0 | 41 | –
COCCOC(=O)N1CCC(Nc2nc(N)c(C(=O)c3c(F)cccc3F)s2)CC1 [Example R82] | – | – | – | – | −11 | 17 | 0 | 50 | –
Nc1nc(NC2CCN(C(=O)c3ccc(C(F)(F)F)cc3F)CC2)sc1C(=O)c1c(F)cccc1F [Example R35] | – | – | – | – | 19 | 21 | 0 | 49 | –
Nc1nc(NC2CCN(S(=O)(=O)c3ccc(N4CCC(O)C4)nc3)CC2)sc1C(=O)c1c(F)cccc1F (stereo not shown) [Example G11, 1-(4-Amino-2-{1-[6-(3-hydroxy-pyrrolidin-1-yl)-pyridin-3-sulfonyl]-piperidin-4-ylamino}-thiazol-5-yl)-1-(2,6-difluoro-phenyl)-methanone Trifluoroacetic Acid Salt] | < 1 | 0.86 | 420 | > 5000 | – | – | – | – | –
CC1CCC(C)N1CCS(=O)(=O)N1CCC(Nc2nc(N)c(C(=O)c3c(F)cccc3F)s2)CC1 (mixture of isomers) [Example K26, (4-Amino-2-{1-[2-(cis/trans-2,5-dimethyl-pyrrolidin-1-yl)-ethanesulfonyl]-piperidin-4-ylamino}-thiazol-5-yl)-(2,6-difluoro-phenyl)-methanone Trifluoroacetic Acid Salt.] | 13 | 2.1 | 190 | 800 | – | – | – | – | –
Nc1nc(NC2CCN(C(=O)c3cc(C(F)(F)F)ccc3C(F)(F)F)CC2)sc1C(=O)c1c(F)cccc1F [Example R55] | – | – | – | – | 11 | 37 | 5 | 51 | –
COc1cccc(C(=O)N2CCC(Nc3nc(N)c(C(=O)c4c(F)cccc4F)s3)CC2)c1OC [Example R115] | – | – | – | – | 42 | 58 | 0 | 49 | –
Nc1nc(NC2CCN(C(=O)c3ccc(Cl)nc3)CC2)sc1C(=O)c1c(F)cccc1F [Example C9, 1-(4-Amino-2-{1-[-(6-chloro-pyridin-3-yl)-methanoyl]-piperidin-4-ylamino}-thiazol-5-yl)-1-(2,6-difluoro-phenyl)-methanone] | 67 | 20 | 590 | 1300 | – | – | – | – | –
